Values quoted from earlier work, collected in PMC9780888, “4-Isobutylmethcathinone—A Novel Synthetic Cathinone with High In Vitro Cytotoxicity and Strong Receptor Binding Preference of Enantiomers” (Pharmaceuticals, 2022).

How the values were obtained:
SH-SY5Y cells = system: SH-SY5Y cells; set-up: method as in PMID 31473217; details: 24 h of exposure ref 20; cited from earlier work
[1] = system: DAR2-like family receptors vs DAR1-like family of receptors; details: cited from earlier work
HTR receptor = system: HTR receptor; set-up: method as in PMID 22897747; details: cited from earlier work
SERT = details: S- versus R-enantiomer, 13 in b3; cited from earlier work
[2] = system: neuronal differentiated SH-SY5Y cells; set-up: method as in PMID 25624004; details: 24-h exposure, ToxiLight BioAssay ref 30; cited from earlier work
HTR2A = system: HTR2A; set-up: method as in PMID 22897747; details: cited from earlier work

For `CNC(C)C(=O)c1ccc(C)c(C)c1` (stereo not drawn) [3,4-DMMC], the IC50 (SH-SY5Y cells) is listed as greater than 1000 µM.

For `NCCc1ccc(O)c(O)c1` [DA, dopamine], the “affinity of DAR2-like family receptors relative to DAR1-like family” value [1] is given as 10-100 fold.

For `CCNC(C)Cc1ccc2c(c1)OCO2` (stereo not drawn) [MDEA, 3,4-methylenedioxy-N-ethylamphetamine], the “HTR receptor binding activity” value (HTR receptor) is given as “has not been demonstrated”.

For `CNC(C)Cc1ccc2c(c1)OCO2` (stereo not drawn) [MDMA, 3,4-methylenedioxymethamphetamine], the “HTR receptor binding activity” value (HTR receptor) is listed as “has not been demonstrated”.

In the case of `CN[C@@H](C)C(=O)c1ccc(C)cc1` [S-mephedrone], the “potency as SERT releaser relative to R-mephedrone” value (SERT) is listed as 40 times.

For `CCCC(C(=O)c1ccccc1)N1CCCC1` (stereo not drawn) [alpha-PVP], the “reported value for mitochondrial dysfunction” value [2] is listed as “above 100 mM”.

For `CNC(C)C(=O)c1ccc(F)cc1` (stereo not drawn) [flephedrone], the HTR2A-binding activity (HTR2A) is listed as “has been previously described”.

For `CNC(C)C(=O)c1ccc(C)cc1` (stereo not drawn) [mephedrone], the HTR2A-binding activity (HTR2A) is listed as “has been previously described”.

In the case of `CNC(C)C(=O)c1ccccc1` (stereo not drawn) [methcathinone], the HTR2A-binding activity (HTR2A) is listed as “has been previously described”.
